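Five compound concentrations were applied to cells in 96-well plates for 48 hours; endpoints were derived by simple linear interpolation of the resulting dose-response curve. The concentration for full growth arrest is given as TGI.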
Experiments:
Assay in all cases: NCI tumour cell line growth inhibition, 48 h
HCT-15 colon = tested on: HCT-15 colon
786-0 renal = tested on: 786-0 renal
A549 NSCLC = tested on: A549 NSCLC
SK-MEL-2 melanoma = tested on: SK-MEL-2 melanoma
NCI-H522 lung = tested on: NCI-H522 lung
UACC-257 melanoma = tested on: UACC-257 melanoma
UACC-62 melanoma = tested on: UACC-62 melanoma
NCI/ADR-RES ovarian = tested on: NCI/ADR-RES ovarian
MDA-MB-435 = tested on: MDA-MB-435
PC-3 prostate = tested on: PC-3 prostate
SW-620 colon = tested on: SW-620 colon
SK-MEL-28 melanoma = tested on: SK-MEL-28 melanoma
OVCAR-5 ovarian = tested on: OVCAR-5 ovarian
BT-549 breast = tested on: BT-549 breast
A498 renal = tested on: A498 renal
HL-60(TB) leukemia = tested on: HL-60(TB) leukemia
K-562 leukemia = tested on: K-562 leukemia
DU-145 prostate = tested on: DU-145 prostate
KM12 colon = tested on: KM12 colon
CCRF-CEM leukemia = tested on: CCRF-CEM leukemia
MDA-MB-231 breast = tested on: MDA-MB-231 breast
NCI-H23 lung = tested on: NCI-H23 lung
CAKI-1 renal = tested on: CAKI-1 renal
U251 CNS = tested on: U251 CNS
NCI-H460 lung = tested on: NCI-H460 lung
MOLT-4 leukemia = tested on: MOLT-4 leukemia
SF-268 CNS = tested on: SF-268 CNS
SNB-75 CNS = tested on: SNB-75 CNS
LOX IMVI melanoma = tested on: LOX IMVI melanoma
T-47D breast = tested on: T-47D breast
UO-31 renal = tested on: UO-31 renal
SNB-19 CNS = tested on: SNB-19 CNS
SK-OV-3 ovarian = tested on: SK-OV-3 ovarian
HS 578T breast = tested on: HS 578T breast
SK-MEL-5 melanoma = tested on: SK-MEL-5 melanoma
HOP-92 NSCLC = tested on: HOP-92 NSCLC
OVCAR-3 ovarian = tested on: OVCAR-3 ovarian
HOP-62 NSCLC = tested on: HOP-62 NSCLC
COLO 205 colon = tested on: COLO 205 colon
SN12C renal = tested on: SN12C renal
TK-10 renal = tested on: TK-10 renal
RXF 393 renal = tested on: RXF 393 renal
SF-295 CNS = tested on: SF-295 CNS
MALME-3M melanoma = tested on: MALME-3M melanoma
HCT-116 colon = tested on: HCT-116 colon
MCF7 breast = tested on: MCF7 breast
NCI-H226 lung = tested on: NCI-H226 lung
OVCAR-4 ovarian = tested on: OVCAR-4 ovarian
ACHN renal = tested on: ACHN renal
EKVX NSCLC = tested on: EKVX NSCLC
M14 melanoma = tested on: M14 melanoma
HT29 colon = tested on: HT29 colon
SF-539 CNS = tested on: SF-539 CNS
HCC-2998 colon = tested on: HCC-2998 colon
MDA-N = tested on: MDA-N
OVCAR-8 ovarian = tested on: OVCAR-8 ovarian

C=CC[C@H](N=C(SC)SC)C(=O)N1C(=O)N(C)[C@@H](C)[C@H]1c1ccccc1
TGI (HCT-15 colon): > 100 µM | TGI (786-0 renal): > 100 µM | TGI (A549 NSCLC): > 100 µM | TGI (SK-MEL-2 melanoma): 91.2 µM | TGI (NCI-H522 lung): 54.1 µM | TGI (UACC-257 melanoma): > 100 µM | TGI (UACC-62 melanoma): > 100 µM | TGI (NCI/ADR-RES ovarian): > 100 µM | TGI (MDA-MB-435): > 100 µM | TGI (PC-3 prostate): > 100 µM | TGI (SW-620 colon): > 100 µM | TGI (SK-MEL-28 melanoma): > 100 µM | TGI (OVCAR-5 ovarian): > 100 µM | TGI (BT-549 breast): > 100 µM | TGI (A498 renal): > 100 µM | TGI (HL-60(TB) leukemia): > 100 µM | TGI (K-562 leukemia): > 100 µM | TGI (DU-145 prostate): > 100 µM | TGI (KM12 colon): > 100 µM | TGI (CCRF-CEM leukemia): > 100 µM | TGI (MDA-MB-231 breast): > 100 µM | TGI (NCI-H23 lung): > 100 µM | TGI (CAKI-1 renal): > 100 µM | TGI (U251 CNS): > 100 µM | TGI (NCI-H460 lung): > 100 µM | TGI (MOLT-4 leukemia): > 100 µM | TGI (SF-268 CNS): > 100 µM | TGI (SNB-75 CNS): > 100 µM | TGI (LOX IMVI melanoma): > 100 µM | TGI (T-47D breast): > 100 µM | TGI (UO-31 renal): > 100 µM | TGI (SNB-19 CNS): > 100 µM | TGI (SK-OV-3 ovarian): > 100 µM | TGI (HS 578T breast): > 100 µM | TGI (SK-MEL-5 melanoma): > 100 µM | TGI (HOP-92 NSCLC): 68.3 µM | TGI (OVCAR-3 ovarian): > 100 µM | TGI (HOP-62 NSCLC): > 100 µM | TGI (COLO 205 colon): > 100 µM | TGI (SN12C renal): > 100 µM | TGI (TK-10 renal): > 100 µM | TGI (RXF 393 renal): > 100 µM | TGI (SF-295 CNS): > 100 µM | TGI (MALME-3M melanoma): > 100 µM | TGI (HCT-116 colon): > 100 µM | TGI (MCF7 breast): > 100 µM | TGI (NCI-H226 lung): > 100 µM | TGI (OVCAR-4 ovarian): > 100 µM | TGI (ACHN renal): > 100 µM | TGI (EKVX NSCLC): 78.4 µM | TGI (M14 melanoma): > 100 µM | TGI (HT29 colon): > 100 µM | TGI (SF-539 CNS): > 100 µM | TGI (HCC-2998 colon): 92.2 µM | TGI (MDA-N): > 100 µM | TGI (OVCAR-8 ovarian): > 100 µM

From PubChem BioAssay (NCI)
